Test results taken from publication PMC4406241 (Current eye research, 2009).

Target: T1, Breast Cancer Resistance Protein (BCRP) (Homo sapiens, UniProt Q9UNQ0)
T1 sequence (Q9UNQ0 1-655): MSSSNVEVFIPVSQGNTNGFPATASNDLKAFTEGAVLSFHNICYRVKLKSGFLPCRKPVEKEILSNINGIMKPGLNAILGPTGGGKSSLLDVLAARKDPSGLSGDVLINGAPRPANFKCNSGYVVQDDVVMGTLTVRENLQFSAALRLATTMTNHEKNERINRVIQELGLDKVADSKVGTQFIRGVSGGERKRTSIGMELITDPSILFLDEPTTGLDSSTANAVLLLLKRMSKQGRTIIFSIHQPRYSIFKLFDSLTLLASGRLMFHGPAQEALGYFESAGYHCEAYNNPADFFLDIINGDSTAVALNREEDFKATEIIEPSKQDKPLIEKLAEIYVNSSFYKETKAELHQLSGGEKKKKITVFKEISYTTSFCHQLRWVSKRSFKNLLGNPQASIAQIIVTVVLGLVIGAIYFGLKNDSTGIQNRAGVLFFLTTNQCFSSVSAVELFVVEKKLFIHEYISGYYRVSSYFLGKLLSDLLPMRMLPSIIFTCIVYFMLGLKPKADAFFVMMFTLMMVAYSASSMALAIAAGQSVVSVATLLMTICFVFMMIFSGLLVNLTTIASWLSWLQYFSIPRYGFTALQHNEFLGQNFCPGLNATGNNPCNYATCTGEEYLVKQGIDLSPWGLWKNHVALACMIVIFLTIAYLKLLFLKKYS
Assay: inhibition of [3H]-MTX efflux from MDCKII-BCRP transfected cells and SV40-HCEC
Type: cell-based

## COc1ccc2c3c([nH]c2c1)[C@H](C=C(C)C)N1C(=O)[C@@H]2CCCN2C(=O)[C@@H]1C3 [FTC, Fumetremorgin C]
  IC50: ~10 µM
